Common to all, as to format: cell-based
One assay relates to A. fumigatus GC 3092. Briefly: Antifungal activity, microtiter broth dilution MIC. As to conditions: for ANTIFUNGAL ACTIVITY (MIC): A. fumigatus GC 3092, RPMI 1640, 35° C., 24-48 hours. The protocol: (§1) The antifungal activity for the 1-oxorapamycins of this invention was confirmed in a standard pharmacological test procedure which measured the ability of the compound being evaluated to inhibit fungal growth. 1-Oxorapamycin (Compound I), 1-oxorapamycin 42-ester with 3-hydroxy-2-(hydroxymethyl)-2-methylpropionic acid (Compound II), and 42-O-(2-hydroxy)ethyl 1-oxorapamycin (Compound III) were evaluated as representative compounds of this invention. The procedure used and results obtained are briefly described below. A 96 U-bottom microtiter plate was filled (50 μl/well) with RPMI 1640. The compounds to be evaluated were placed in appropriate wells, and serial diluted in successive wells to provide 11 dilutions. The concentrations ranged from 64 through 0.06 μg/ml. An adjusted inoculum of fungi (50 μl) was added to each well and the plates were incubated at 35° C. for 24-48 hours. […] Nystatin and rapamycin were used for the purpose of comparison.

The subject of a further assay is A. niger GC 3091. The experiment in a line: Antifungal activity, microtiter broth dilution MIC. The settings on record: 24-48 hours; for ANTIFUNGAL ACTIVITY (MIC): RPMI 1640, 35° C. On the procedure:
as §1
(In general: In broth dilution the organism is exposed to a series of concentrations in liquid medium.)

In the next assay the test system is A. niger GC 6591. The experiment in a line: Antifungal activity, microtiter broth dilution MIC. As to conditions: 24-48 hours; for ANTIFUNGAL ACTIVITY (MIC): RPMI 1640, 35° C. On the procedure: as §1
The test system of the next assay is C. albicans GC 3064. Briefly: Antifungal activity, microtiter broth dilution MIC. As to conditions: 24-48 hours; for ANTIFUNGAL ACTIVITY (MIC): RPMI 1640, 35° C. The protocol:
as §1

In the next assay the test system is C. albicans GC 3065. The experiment in a line: Antifungal activity, microtiter broth dilution MIC. As to conditions: 24-48 hours; for ANTIFUNGAL ACTIVITY (MIC): RPMI 1640, 35° C. The protocol: as §1
The subject of a further assay is C. albicans GC 3066. Briefly: Antifungal activity, microtiter broth dilution MIC. The settings on record: 24-48 hours; for ANTIFUNGAL ACTIVITY (MIC): RPMI 1640, 35° C. The protocol:
as §1

The test system of the next assay is C. krussii GC 3067. The experiment in a line: Antifungal activity, microtiter broth dilution MIC. As to conditions: RPMI 1640, 35° C., 24-48 hours. On the procedure: as §1
A further assay concerns C. lusitaniae GC 3068. Briefly: Antifungal activity, microtiter broth dilution MIC. As to conditions: RPMI 1640, 35° C., 24-48 hours; for MIC: Clavispora lusitaniae. The protocol:
as §1

The next assay has as its system C. parapsilosis GC 3074. The experiment in a line: Antifungal activity, microtiter broth dilution MIC. As to conditions: 24-48 hours; for ANTIFUNGAL ACTIVITY (MIC): RPMI 1640, 35° C. On the procedure:
as §1

For another assay, the system named is C. parapsilosis GC 3075. The experiment in a line: Antifungal activity, microtiter broth dilution MIC. The settings on record: 24-48 hours; for ANTIFUNGAL ACTIVITY (MIC): RPMI 1640, 35° C. On the procedure:
as §1

A further assay deals with C. parapsilosis GC 3076. Briefly: Antifungal activity, microtiter broth dilution MIC. The settings on record: 24-48 hours; for ANTIFUNGAL ACTIVITY (MIC): RPMI 1640, 35° C. The protocol:
as §1

Another assay has as its system C. pseudotropicalis 3070. The experiment in a line: Antifungal activity, microtiter broth dilution MIC. The settings on record: RPMI 1640, 35° C., 24-48 hours. The protocol: as §1
The subject of the next assay is C. tropicalis GC 3080. Briefly: Antifungal activity, microtiter broth dilution MIC. As to conditions: 24-48 hours; for ANTIFUNGAL ACTIVITY (MIC): RPMI 1640, 35° C. The protocol:
as §1

A further assay concerns C. tropicalis GC 3081. Briefly: Antifungal activity, microtiter broth dilution MIC. The settings on record: 24-48 hours; for ANTIFUNGAL ACTIVITY (MIC): RPMI 1640, 35° C. The protocol:
as §1

The test system of assay [1] is 3T3 (ovarian) tumor cell line. Briefly: Antineoplastic activity, tumor cell growth inhibition (sulforhodamine B). As to conditions: Mus musculus, NIH3T3, 3T3 cells, 48 hours. The text has this: (§2) Antineoplastic activity for the compounds of this invention was confirmed by evaluating the antineoplastic activity of representative compounds of this invention (Compounds I-III) against six tumor cell lines in vitro. Briefly, tumor cells from six cell lines were placed in wells of a 96 well microtiter plate. The following tumor cell lines were used: 3T3 (ovarian), 3T3/H2N (ovarian—resistant to cis-platin), A431 (vulva epidermoid origin), SW620 (colon), SKBR3 (breast), and MDA-435 (breast). The tumors cells were grown in the presence of serial dilutions of the compound to be evaluated for 48 hours, and cell growth determined using a colorimetric procedure (sulforhrodamine B). The inhibition of growth was calculated compared to the number of cells at the time of test compound addition. Results are expressed as an IC50 (μg/ml); N/A indicates the compound was not evaluated against that cell line. The following IC50s was listed on Table 2.

The test system of assay [2] is 3T3/H2N (ovarian—resistant to cis-platin) tumor cell line. The description is as above. As to conditions: 3T3/H2N cells, 48 hours.
Source text: as §2

The subject of assay [3] is A431 (vulva epidermoid origin) tumor cell line. The description is as above. The settings on record: 48 hours.
Source text: as §2

In assay [4] the test system is MDA-435 (breast) tumor cell line. The description is as above. As to conditions: MDA435 cells, 48 hours.
Source text: as §2

In assay [5] the test system is SKBR3 (breast) tumor cell line. The assay is described as above. As to conditions: 48 hours.
Source text: as §2

The test system of assay [6] is SW620 (colon) tumor cell line. The assay is described as above. As to conditions: 48 hours.
Source text: as §2

For another assay, the system named is SH-SY5Y cells. The experiment in a line: Neuroregeneration activity, neurite outgrowth. As to conditions: aphidicolin pretreated, NGF plus test compound, mean ± SEM. The text has this:
The neuroregeneration activity for the compounds of this invention was confirmed in a standard pharmacological test procedure by evaluating 1-oxo-rapamycin (Compound I) as representative compound of this invention, against SH-SY5Y cells in vitro [Gold et al., Exp Neurol 147: 269-278, 1997]. Briefly, SH-SY5Y cells were placed in 6-well plate treated with aphidicolin for 5 days followed by the test compounds using 6-well plates. For controls, wells were untreated, or treated with nerve growth factor (NGF) alone. Test wells were treated with NGF plus compound I or rapamycin. Cells were photographed at 168 hours. Analysis of neuritic lengths was performed on photographic prints using a Houston Instrument HI-PAD digitizing tablet connected to an IBM XT computer with appropriate software (Bioquant IV, R&M Biometrics, Nashville, Tenn.). Mean values for axonal areas were compared using by ANOVA (STATVIEW, Abacus Concepts, Inc., Berkeley, Calif. The following table summarizes the results that were obtained.

[7] abbreviates: C. lusitaniae GC 3068, first listing (r26).

Values after ≈ are worked out from the molar mass of the structure shown. Where two headings read alike, the source gives them in different places. Some results are limits rather than exact numbers.

Broadly, the MIC is the smallest concentration in the dilution series that meets the test's criterion for growth inhibition. The term IC50 denotes the concentration that gives 50% inhibition.

Take `CO[C@H]1CC2CC[C@@H](C)[C@@](O)(O2)C(=O)C(=O)N2CCCC[C@H]2C(=O)O[C@H]([C@H](C)CC2CC[C@@H](O)[C@H](OC)C2)CC(=O)[C@H](C)/C=C(\C)[C@@H](O)[C@@H](OC)C(=O)[C@H](C)C[C@H](C)C(=O)C/C=C/C=C/1C` (stereo partly drawn) [Compound I, 1-Oxo-rapamycin]: the minimal inhibitory concentration (MIC) with A. fumigatus GC 3092 (Aspergillus fumigatus, GC3092, read-out: ANTIFUNGAL ACTIVITY (MIC)) was 64 µg/mL (≈ 68.8 µM); in the assay with A. niger GC 3091 (Aspergillus niger, GC3091, RPMI 1640, 35° C.), 64 µg/mL (≈ 68.8 µM); against A. niger GC 6591 (Aspergillus niger, GC6591, RPMI 1640, 35° C.) it was 64 µg/mL (≈ 68.8 µM); against C. albicans GC 3064 (Candida albicans, GC3064, RPMI 1640, 35° C.), 8 µg/mL (≈ 8.6 µM); against C. albicans GC 3065 (Candida albicans, GC3065, RPMI 1640, 35° C.) it was 2 µg/mL (≈ 2.15 µM); against C. albicans GC 3066 (Candida albicans, GC3066, RPMI 1640, 35° C.) it was 2 µg/mL (≈ 2.15 µM). Further, the minimal inhibitory concentration (MIC) was found to be 16 µg/mL (≈ 17.2 µM) with C. krussii GC 3067; 0.5 µg/mL (≈ 0.538 µM) in the assay on C. lusitaniae GC 3068 (GC3068, C. lusitaniae GC 3068, first listing (r26), read-out: ANTIFUNGAL ACTIVITY (MIC)); 2 µg/mL (≈ 2.15 µM) in the assay on C. lusitaniae GC 3068 (GC3068, read-out: ANTIFUNGAL ACTIVITY (MIC), C. lusitaniae GC 3068, second listing (r28)); 2 µg/mL (≈ 2.15 µM) against C. parapsilosis GC 3074 (Lodderomyces parapsilosis, GC3074, RPMI 1640, 35° C.); 1 µg/mL (≈ 1.08 µM) against C. parapsilosis GC 3075 (Lodderomyces parapsilosis, GC3075, RPMI 1640, 35° C.); 2 µg/mL (≈ 2.15 µM) against C. parapsilosis GC 3076 (Lodderomyces parapsilosis, GC3076, RPMI 1640, 35° C.). For the same compound, the MIC with C. pseudotropicalis 3070 (Kluyveromyces marxianus) is 0.5 µg/mL (≈ 0.538 µM); against C. tropicalis GC 3080 (Candida tropicalis, GC3080, RPMI 1640, 35° C.), 2 µg/mL (≈ 2.15 µM); in the assay on C. tropicalis GC 3081 (Candida tropicalis, GC3081, RPMI 1640, 35° C.), 0.5 µg/mL (≈ 0.538 µM). For the same compound, the IC50 in [1] worked out at 0.89 µg/mL (≈ 0.957 µM); in assay [2], 2.3 µg/mL (≈ 2.47 µM); in assay [3] (Homo sapiens, A-431, A431 cells), 6.2 µg/mL (≈ 6.67 µM); in assay [4], 6 µg/mL (≈ 6.45 µM); in [5] (Homo sapiens, SK-BR-3, SKBR3 cells), 3.6 µg/mL (≈ 3.87 µM); in assay [6] (Homo sapiens, SW-620, SW620 cells), 12.7 µg/mL (≈ 13.7 µM). In addition, the “Mean Neurite Lengths after 168 h, Neurite Length” value with SH-SY5Y cells is reported as 233.7 ± 8.8 μm.
Turning to `C[C@@H]1[C@H](O)[C@@H](C)/C=C/C=C/CC/C=C/C=C/C=C/C=C/C(O[C@H]2O[C@H](C)[C@@H](O)[C@H](N)[C@@H]2O)CC2O[C@](O)(CC(O)C(O)CCC(O)CC(O)CC(O)CC(=O)O[C@H]1C)CC(O)C2C(=O)O` (stereo partly drawn) [Nystatin, reference compound], the “ANTIFUNGAL ACTIVITY (MIC)” value with A. fumigatus GC 3092 was determined as 1 µg/mL; in the assay with A. niger GC 3091, 2 µg/mL; in the assay on A. niger GC 6591, 2 µg/mL; with C. albicans GC 3064, 1 µg/mL; in the assay on C. albicans GC 3065 it was 1 µg/mL; in the assay with C. albicans GC 3066 it was 1 µg/mL. Moreover, the “ANTIFUNGAL ACTIVITY (MIC)” value in the assay with C. krussii GC 3067 was found to be 1 µg/mL; in the assay on C. lusitaniae GC 3068 (setting [7]), 0.50 µg/mL; in the assay with C. lusitaniae GC 3068 (C. lusitaniae GC 3068, second listing (r28)) it was 1 µg/mL; with C. parapsilosis GC 3074, 1 µg/mL; in the assay with C. parapsilosis GC 3075, 0.50 µg/mL; in the assay on C. parapsilosis GC 3076, 0.50 µg/mL. The “ANTIFUNGAL ACTIVITY (MIC)” value came to 0.50 µg/mL in the assay with C. pseudotropicalis 3070, 0.25 µg/mL in the assay on C. tropicalis GC 3080 and 1 µg/mL in the assay on C. tropicalis GC 3081.
As for `CO[C@H]1CC2CC[C@@H](C)[C@@](O)(O2)C(=O)C(=O)N2CCCC[C@H]2C(=O)O[C@H]([C@H](C)CC2CC[C@@H](OCCO)[C@H](OC)C2)CC(=O)[C@H](C)/C=C(\C)[C@@H](O)[C@@H](OC)C(=O)[C@H](C)C[C@H](C)C(=O)C/C=C/C=C/1C` (stereo partly drawn) [Compound III, 42-O-(2-Hydroxy)ethyl 1-oxorapamycin], the “ANTIFUNGAL ACTIVITY (MIC)” value in the assay with A. fumigatus GC 3092 is 2 µg/mL; with A. niger GC 3091, over 32 µg/mL; in the assay with A. niger GC 6591, over 32 µg/mL; in the assay with C. albicans GC 3064, 4 µg/mL; in the assay on C. albicans GC 3065, 2 µg/mL; in the assay with C. albicans GC 3066, 2 µg/mL. Also, the “ANTIFUNGAL ACTIVITY (MIC)” value was over 32 µg/mL in the assay on C. krussii GC 3067; 2 µg/mL with C. lusitaniae GC 3068 (setting [7]); 2 µg/mL in the assay on C. parapsilosis GC 3074; 2 µg/mL in the assay on C. parapsilosis GC 3075; 2 µg/mL with C. parapsilosis GC 3076; 2 µg/mL in the assay with C. pseudotropicalis 3070. For the same compound, the “ANTIFUNGAL ACTIVITY (MIC)” value with C. tropicalis GC 3080 and with C. tropicalis GC 3081 was 2 µg/mL each time. The “Antineoplastic Activity (IC50)” value is 0.48 µg/mL in assay [3] (A431 cells), 0.038 µg/mL in assay [5] (SKBR3 cells) and 1.9 µg/mL in assay [6] (SW620 cells).

Source of the values: US6399625B1, “1-oxorapamycins” (Wyeth, priority 2000, dated 2002).
